The source of these data is PMC4769084, “Aminoglycoside binding and catalysis specificity of aminoglycoside 2″-phosphotransferase IVa: A thermodynamic, structural and kinetic study” (Biochimica et Biophysica Acta, 2016).

In series [1] the target is T1, APH(2″)-IVa (Enterococcus casseliflavus, UniProt O68183). The experiment in a line: Transient kinetics, stopped–flow with MDCC-ParM ADP biosensor (free ADP). The conditions noted are these: 5 μM APH(2″)-IVa, 500 μM ATP, 100 μM aminoglycoside, 50 μM MDCC-ParM. The series is classed as biochemical. How it is done: (§1) Unless otherwise stated, kinetic experiments were carried out in a buffer that contained 50 mM Tris, 40 mM KCl, 1 mM free MgCl2 adjusted to pH 7.5 with HCl at 25 °C. In the case of experiments with CaATP, the buffer was MgCl2-free.
(§2) Transient kinetic experiments were carried out at 25 °C in a QFM-400 quench–flow (Bio-Logic, France) or in a SF-61 DX2 stopped–flow (TgK Scientific, UK). In the quench–flow method, APH(2″)-IVa, pre-incubated with the aminoglycoside, was mixed with ATP in the apparatus. The mixtures were aged for specific times (from 8 ms to several seconds), quenched in 10% perchloric acid and the ADP and ATP measured by HPLC, as described above. Because perchloric acid dissociates all non-covalent complexes, by this method, concentrations in the reaction mixtures of total ADP, that is to say enzyme-bound ADP plus free ADP, are obtained. In the stopped–flow experiments, a free ADP fluorescent biosensor, MDCC-ParM [28], was included in the ATP solution. By this method, concentrations in the reaction mixtures of free ADP only are obtained. Experiments were carried out as previously described for APH(3′)-IIIa.

Series [2] deals with T1, APH(2″)-IVa. To be noted: for Kd/Km: ratio of ITC Kd to steady state Km; for Km / kcat: saturating MgATP (2.5 mM), aminoglycoside 0 to 100 μM, 25 °C, pH 7.5; for Km: na = no detectable activity; for kcat: na = no detectable activity (< 0.001 s^− 1), enzyme up to 5 μM; for phosphotransferase activity: confirmed at 5 μM APH(2″)-IVa, 2.5 mM ATP. The method, then:
as §1
Steady state kinetics were carried out in thermostatically controlled beakers as already described. Unless otherwise stated, the enzyme concentration was 0.5 μM in the presence of various concentrations of aminoglycoside (5 to 100 μM). […] At regular intervals, a volume of 80 μL of the reaction mixture was sampled from the beaker and mixed in a tube containing 40 μL of perchloric acid at 10%. The precipitated protein was then removed by centrifugation at 4 °C, 20 min at 19,000 g. ADP and ATP were separated by HPLC (Waters) on an anion-exchange column (SAX-Partisphere, AIT France). The mobile phase was 200 mM ammonium phosphate–HCl buffer at pH 5.5 and 10% acetonitrile. A 100 μL volume of the quenched reaction mixture was diluted in 900 μL of buffer containing the mobile phase supplemented with 5 N KOH to readjust the pH to 5.5. Quantification of ADP and ATP was obtained by integrating HPLC peaks at 259 nm and their concentrations were reported relative to the enzyme concentration. […] For each injected sample, the concentration of ADP was calculated using the following equation, where [ATP]i is the initial ATP concentration used in the experiment:(3) ADP=ADPpeakarea×ATPi/ADPpeakarea+ATPpeakarea

For series [3], the target named is T1, APH(2″)-IVa. The experiment in a line: Isothermal titration calorimetry of aminoglycoside binding. The method, then:
The enzyme was extensively dialyzed against buffer containing 50 mM Tris–HCl at pH 7.5, 40 mM KCl, 1 mM MgCl2 and ligand solutions were prepared at 5 mM in the final dialysate with readjusting pH to 7.5. The enzyme was used at a final concentration of 150 μM. ITC experiments were carried out at 25 °C in a VP-ITC calorimeter (MicroCal, GE Healthcare). Titrations consisted of 40 injections of 5 μL of ligand every 300 s. The cell stirring speed was 300 rpm. To obtain reliable dissociation constants, the c-value, a unitless parameter obtained by the multiplication of the association constant and the total concentration of ligand binding sites, was kept between 1.8 and 100 for all titrations. Control runs were performed by titrating ligands to buffer, and the resulting background signal was subtracted from the corresponding experimental data. Experiments were carried out at 1 mM free Mg^2 +.
Binding and thermodynamic parameters Ka (association constant), ΔH (enthalpy change) and stoichiometry were obtained by nonlinear least-squares fitting of experimental data using a single-site binding model of the Origin software package (version 5.0) provided with the instrument. The free energy of binding (ΔG) and entropy change at 25 °C (ΔS) were obtained using the following equations:(1) ΔG=–RTlnKa (2) ΔG=ΔH–TΔS
The experiments were performed in triplicate (except with G418 and kanamycin B, in duplicate) and the error values given in the tables are standard deviations.
(ITC needs no label: the signal is the heat of the interaction.)

Series [4] concerns the target T1, APH(2″)-IVa. The experiment in a line: Transient kinetics, rapid quench–flow (total ADP). It is filed as biochemical. To be noted: 5 μM APH(2″)-IVa, 500 μM ATP, 100 μM aminoglycoside; for Aburst: ± standard error of fit. How it is done:
as §1, §2

Series [5] deals with APH(2″)-IVa. Also noted: method as in Toth et al. [5]. To be noted: values in brackets, coupled enzyme system; ref Toth et al. [5]; cited from earlier work.
Series [6] relates to CN[C@@H]1[C@@H](O)[C@@H](O[C@@H]2[C@@H](O)[C@H](O[C@H]3OC(CN)=CC[C@H]3N)[C@@H](N)C[C@H]2N)OC[C@]1(C)O. Briefly: purified protein, by the assay type. The conditions noted are these: other: saturating MgATP (2.5 mM), aminoglycoside 0 to 100 μM, 25 °C, pH 7.5, na = no detectable activity.
Procedure: (§3) Steady state kinetics were carried out in thermostatically controlled beakers as already described [27]. Unless otherwise stated, the enzyme concentration was 0.5 μM in the presence of various concentrations of aminoglycoside (5 to 100 μM). […] Reactions were initiated by adding a saturating concentration of ATP (2.5 mM) in a thermostatically controlled beaker containing APH(2″)-IVa and aminoglycoside. At regular intervals, a volume of 80 μL of the reaction mixture was sampled from the beaker and mixed in a tube containing 40 μL of perchloric acid at 10%. The precipitated protein was then removed by centrifugation at 4 °C, 20 min at 19,000 g. ADP and ATP were separated by HPLC (Waters) on an anion-exchange column (SAX-Partisphere, AIT France). The mobile phase was 200 mM ammonium phosphate–HCl buffer at pH 5.5 and 10% acetonitrile. A 100 μL volume of the quenched reaction mixture was diluted in 900 μL of buffer containing the mobile phase supplemented with 5 N KOH to readjust the pH to 5.5. Quantification of ADP and ATP was obtained by integrating HPLC peaks at 259 nm and their concentrations were reported relative to the enzyme concentration. Concentrations (in the quenched reaction mixtures) between 0.5 and 500 μM of ADP or ATP gave a linear and equivalent OD259 response. For each injected sample, the concentration of ADP was calculated using the following equation, where [ATP]i is the initial ATP concentration used in the experiment:(3) ADP=ADPpeakarea×ATPi/ADPpeakarea+ATPpeakarea
The subject of series [7] is NC[C@H]1O[C@H](O[C@H]2[C@H](O)[C@@H](O[C@H]3O[C@H](CO)[C@@H](O)[C@H](N)[C@H]3O)[C@H](N)C[C@@H]2N)[C@H](N)[C@@H](O)[C@@H]1O. The experiment in a line: purified protein, by the assay type. The conditions noted are these: other: saturating MgATP (2.5 mM), aminoglycoside 0 to 100 μM, 25 °C, pH 7.5, na = no detectable activity.
Procedure: as §3
Series [8] relates to NC[C@H]1O[C@H](O[C@H]2[C@H](O)[C@@H](O[C@H]3O[C@H](CO)[C@@H](O)[C@H](N)[C@H]3O)[C@H](N)C[C@@H]2N)[C@H](N)C[C@@H]1O. The experiment in a line: purified protein, by the assay type. The conditions noted are these: other: saturating MgATP (2.5 mM), aminoglycoside 0 to 100 μM, 25 °C, pH 7.5, na = no detectable activity.
Procedure: as §3

Like-named read-outs stand apart in the source and are kept apart here.

T1 sequence (O68183 entry or part of it): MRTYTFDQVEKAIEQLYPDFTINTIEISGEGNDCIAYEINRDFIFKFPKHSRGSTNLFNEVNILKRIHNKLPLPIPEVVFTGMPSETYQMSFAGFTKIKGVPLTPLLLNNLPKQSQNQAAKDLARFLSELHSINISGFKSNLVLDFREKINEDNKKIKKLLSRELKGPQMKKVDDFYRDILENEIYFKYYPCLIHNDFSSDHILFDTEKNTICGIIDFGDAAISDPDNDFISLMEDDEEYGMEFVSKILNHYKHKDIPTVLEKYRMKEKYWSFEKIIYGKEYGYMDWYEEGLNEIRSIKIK

Usually Km stands for the concentration of substrate that gives half-maximal velocity. A word on the Kd: it is the free concentration of one partner at which half of the binding sites on the other are occupied at equilibrium, for simple one-to-one binding. `CN[C@@H]1[C@@H](O)[C@@H](O[C@@H]2[C@@H](O)[C@H](O[C@H]3O[C@H]([C@@H](C)O)[C@@H](O)[C@H](O)[C@H]3N)[C@@H](N)C[C@H]2N)OC[C@]1(C)O` [G418]: in series [1], the klag is 1.6 ± 0.1 s^− 1 and the kss is recorded as 0.33 ± 0.01 s^− 1. In addition, in series [2], the Kd/Km turned out to be 12.5, the Km came to 2.2 ± 0.4 µM and the kcat amounted to 0.49 ± 0.01 s^− 1. Further, in series [3] (read-out: Kd), the Kd came to 27.5 ± 3.3 µM. Further, in series [4], the kburst came to 2.0 ± 1.1 s^− 1, the kss was 0.35 ± 0.04 s^− 1 and the Aburst is 0.34 ± 0.11 mol/mol.

Consider `NCC[C@H](O)C(=O)N[C@@H]1C[C@H](N)[C@@H](O[C@H]2O[C@H](CN)[C@@H](O)[C@H](O)[C@H]2O)[C@H](O)[C@H]1O[C@H]1O[C@H](CO)[C@@H](O)[C@H](N)[C@H]1O` [Amikacin], for which, in series [2], the phosphotransferase activity result is on record as “absence of activity”. The molecule further yielded a dissociation constant (Kd) in series [3] of 82.2 ± 8.9 µM. Further, in series [5], the Km is 98 µM and the kcat entry is “(0.15 ± 0.01) s^− 1”.

For `NC[C@@H]1O[C@H](O[C@H]2[C@@H](O)[C@H](O[C@@H]3[C@@H](O)[C@H](N)C[C@H](N)[C@H]3O[C@H]3O[C@H](CO)[C@@H](O)[C@H](O)[C@H]3N)O[C@@H]2CO)[C@H](N)[C@@H](O)[C@@H]1O` [Paromomycin], in series [2], the phosphotransferase activity result is on record as “absence of activity”. Also, binding in series [3] was put at a Kd of 63.6 ± 29 µM.

Regarding `NC[C@H]1O[C@H](O[C@H]2[C@H](O)[C@@H](O[C@H]3O[C@H](CO)[C@@H](O)[C@H](N)[C@H]3O)[C@H](N)C[C@@H]2N)[C@H](N)[C@@H](O)[C@@H]1O` [Kanamycin B], the Kd/Km in series [2] is recorded as 0.5. The molecule further registered a Kd in series [3] of 5.7 ± 1.1 µM.

In the case of `NC[C@H]1O[C@H](O[C@H]2[C@H](O)[C@@H](O[C@H]3O[C@H](CO)[C@@H](O)[C@H](N)[C@H]3O)[C@H](N)C[C@@H]2N)[C@H](N)C[C@@H]1O` [Tobramycin], in series [1], the klag was found to be 3.3 ± 0.1 s^− 1 and the kss amounted to 1.05 ± 0.01 s^− 1. Besides, in series [2], the Kd/Km is 0.3. In series [3], this molecule showed a dissociation constant (Kd) of 3.9 ± 0.6 µM. Moreover, the “affinity of the apoprotein, times greater than for kanamycin A and for amikacin” value in series [3] (ITC Kd comparison) turned out to be 20 times. In series [4], this molecule showed a kburst of 2.1 ± 0.4 s^− 1, a kss of 1.08 ± 0.02 s^− 1 and an Aburst of 0.44 ± 0.05 mol/mol. In series [5], the Michaelis constant (Km) is 1.5 µM and the kcat result is “(1.80 ± 0.03) s^− 1”.

Consider `CNC(C)C1CCC(N)C(OC2C(N)CC(N)C(OC3OCC(C)(O)C(NC)C3O)C2O)O1` (centres unmarked) [Gentamicin], for which, in series [2], the Kd/Km is 2.9, the Michaelis constant (Km) came to 3.3 ± 0.6 µM and the kcat turned out to be 0.47 ± 0.01 s^− 1. Binding in series [3] was put at a Kd of 9.7 ± 5 µM.

As for “APH(2″)-IVa (Enterococcus casseliflavus)”, the values for the Km in series [6], in series [7] and in series [8] were 3.5 ± 0.6 µM, 12.5 ± 2.9 µM and 13.2 ± 2.2 µM, respectively. The figures for the kcat in series [6], in series [7] and in series [8] were 0.73 ± 0.02 s^− 1, 1.69 ± 0.11 s^− 1 and 1.64 ± 0.08 s^− 1, respectively. Besides, the kcat/Km in series [6] amounted to 0.209 μM^− 1 s^− 1; in series [7] it was 0.135 μM^− 1 s^− 1; in series [8] it was 0.124 μM^− 1 s^− 1.

`CN[C@@H]1[C@@H](O)[C@@H](O[C@@H]2[C@@H](O)[C@H](O[C@H]3OC(CN)=CC[C@H]3N)[C@@H](N)C[C@H]2N)OC[C@]1(C)O` [Sisomicin]: in series [1], the klag is given as 1.6 ± 0.1 s^− 1 and the kss stood at 0.48 ± 0.01 s^− 1. In addition, the Kd/Km in series [2] is 0.7. The molecule further registered a dissociation constant Kd in series [3] of 2.3 ± 1.6 µM. In series [4], this molecule showed a kburst of 2.0 ± 0.4 s^− 1, a kss of 0.50 ± 0.02 s^− 1 and an Aburst of 0.48 ± 0.07 mol/mol.

In series [1], Kanamycin A registered a klag of 3.4 ± 0.1 s^− 1 and a kss of 0.70 ± 0.01 s^− 1. Besides, the “steady state rate constant” value in series [2] (0.5 μM APH(2″)-IVa, 100 μM kanamycin A, 100 μM MgATP) is 0.23 s^− 1. Also, in series [2] (0.5 μM APH(2″)-IVa, 100 μM kanamycin A, 200 μM MgATP), the “steady state rate constant” value is recorded as 0.37 s^− 1. In series [2] (0.5 μM APH(2″)-IVa, 100 μM kanamycin A, 2 mM CaATP), the “kss, CaATP phosphotransferase activity” value is listed as 0.092 s^− 1. Besides, the “kss, MgATP phosphotransferase activity” value in series [2] (0.5 μM APH(2″)-IVa, 100 μM kanamycin A, 2 mM MgATP) worked out at 0.84 s^− 1. Moreover, the “Km, fold lower compared with tobramycin” value in series [2] (in the presence of ATP) worked out at 3.3 fold. Further, in series [2], the Kd/Km turned out to be 20.0. Also, the Kd/Km in series [2] (listed as kanamycin A) was 20. Further, in series [3] (ITC Kd comparison), the “Kd, fold larger compared to tobramycin” value worked out at 20 fold. For the same molecule, in series [4], the kburst is reported as 3.4 ± 0.7 s^− 1, the kss is recorded as 0.77 ± 0.02 s^− 1 and the Aburst worked out at 0.38 ± 0.04 mol/mol. For the same molecule, in series [5], the Michaelis-Menten constant (Km) is 3.3 µM and the kcat result is on record as “(0.92 ± 0.01) s^− 1”.
